Measured values reported in PubChem BioAssay (NCI).
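Each compound was tested at five concentrations against cells in 96-well plates for 48 hours. TGI marks complete inhibition of growth.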 Starred links: 1 amine or outer side, 2 acyl side, 3 side chain; linkers in the order of their positions; H or OH if unused. Positions of bridges follow the written chain, without caps; N, C: chain ends. Non-standard residues stand in square brackets, D forms with d. Residues, ends and D or L forms follow the SMILES beside them. *: point of attachment. X3 = CC(C)C(C)C(C(=O)[*:2])N(C)[*:1]; Picolinoyl(3-OH) = O=C(c1ncccc1O)*; NMePhg = CN[CH](C(=O)O)c1ccccc1; Hyp = O=C(O)[CH]1C[CH](O)CN1; Sar = CNCC(=O)O

Assays:
Test in all cases: NCI tumour cell line growth inhibition, 48 h
DLD-1 colon = tested on: DLD-1 colon
DMS 114 small cell lung = tested on: DMS 114 small cell lung
DMS 273 small cell lung = tested on: DMS 273 small cell lung
HOP-18 NSCLC = tested on: HOP-18 NSCLC
HOP-92 NSCLC = tested on: HOP-92 NSCLC
KM20L2 colon = tested on: KM20L2 colon
M19-MEL melanoma = tested on: M19-MEL melanoma
NCI-H226 lung = tested on: NCI-H226 lung
NCI-H23 lung = tested on: NCI-H23 lung
P388/ADR leukemia = tested on: P388/ADR leukemia
SN12K1 renal = tested on: SN12K1 renal
SNB-78 CNS = tested on: SNB-78 CNS
UACC-257 melanoma = tested on: UACC-257 melanoma
XF 498 CNS = tested on: XF 498 CNS

Measured: TGI

CC(C)CC1NC(=O)C(NC(=O)c2ncccc2O)C(C)OC(=O)C(c2ccccc2)N(C)C(=O)C(C)NC(=O)C(C(C)C(C)C)N(C)C(=O)CN(C)C(=O)C2CC(O)CN2C1=O (centres undefined) ({Picolinoyl(3-OH)}-TL[Hyp][Sar][X3]A[NMePhg]; ester 1-C; configuration not given here)
> 120 µM: XF 498 CNS
> 12.5 µM: KM20L2 colon
> 125 µM: all other assays above
